Test results as given in patent US6953810B2, “Nicotinamide biaryl derivatives useful as inhibitors of PDE4 isozymes” (Pfizer Inc, priority 2001, dated 2005).
Entries after “also recorded” stand apart in the source; their conditions may differ.

How the values were obtained:
[1] = tested on: airway hyper-responsiveness (AHR); settings: guinea-pig; PAF-, ozone- or ACh-induced; cited from earlier work
[2] = tested on: lung, BAL, airway and pleural eosinophilia; settings: guinea-pig; cited from earlier work
[3] = tested on: antigen-induced bronchoconstriction; settings: guinea-pig; cited from earlier work
[4] = tested on: ex vivo TNF release and lymphocyte proliferation; settings: oral dose of 300 mg; cited from earlier work
[5] = in vivo; cited from earlier work
[6] = tested on: psoriatic lesions; settings: two double-blind studies; cited from earlier work
[7] = tested on: psoriatic epidermal slices; settings: psoriatic and keratomed psoriatic epidermal slices; cited from earlier work
[8] = tested on: guinea-pig trachea; settings: cited from earlier work
[9] = tested on: rhinorrhea; settings: in vivo; cited from earlier work
[10] = tested on: isolated pulmonary artery rings; settings: cited from earlier work
[11] = tested on: tumor cells; settings: at micromolar concentrations; cited from earlier work
[12] = tested on: bone marrow culture; settings: cited from earlier work
[13] = tested on: human peripheral blood mononuclear cells (HPBM); settings: normal patients and subjects with atopic dermatitis; cited from earlier work
[14] = tested on: lipopolysaccharide-induced mesenteric blood flow fall; settings: dog, in vivo; cited from earlier work
[15] = tested on: chronic relapsing experimental allergic encephalomyelitis; settings: SJL mice; cited from earlier work
[16] = tested on: experimental allergic encephalomyelitis; settings: marmoset; cited from earlier work
[17] = tested on: collagen II induced arthritis; settings: 3 mg/kg twice daily when arthritis was apparent; cited from earlier work
[18] = tested on: antigen-induced lung eosinophilia; settings: rat; cited from earlier work
[19] = tested on: late reactions to inhaled allergen; settings: oral 15 and 30 mg, 9.5 days; cited from earlier work
[20] = tested on: catalytic site (Sc) of PDE4; settings: cited from earlier work
[21] = tested on: patients; settings: oral 5, 10, and 15 mg b.i.d., week 2; cited from earlier work
[22] = tested on: SCW-induced arthritis; settings: in vivo; cited from earlier work
[23] = tested on: rheumatoid arthritis patients; set-up: dose or concentration left out as unconfirmed; settings: 35 patients; cited from earlier work

Structure (SMILES): O=c1c2[nH]cnc2c2cccnc2n1-c1ccccc1 [KF17625]
- inhibition of airway hyper-responsiveness (AHR) [1]: activity
- inhibition of antigen-induced lung, BAL or airway eosinophilia [2]: activity
- inhibition of antigen-induced bronchoconstriction [3]: activity

Structure (SMILES): CCNc1ncn(Cc2ccc(OC)c(OC3CCCC3)c2)c2nc(C(C)C)nc1-2 [Example V-11294A]
- reduction of TNF levels and lymphocyte proliferation [4]: effective

Structure (SMILES): COc1ccc(C2CNC(=O)NC2)cc1O[C@H]1C[C@@H]2CC[C@H]1C2 [CP-80,633, atizoram]
- emesis, nausea, vomiting [5]: elicit emesis

Structure (SMILES): Nc1nc2c([nH]1)c(=O)n(CC1CC1)c(=O)n2CC1CC1 [BRL-61,063, cipamfylline]
- emesis, nausea, vomiting [5]: adverse events of nausea and vomiting

Structure (SMILES): COc1ccc(CC2CNC(=O)N2)cc1OC1CCCC1 (stereo not drawn) [Ro 20-1724]
- psoriatic lesions versus vehicle [6]: improve psoriatic lesions
- elevation of cAMP concentrations over controls [7]: very marked elevation

Structure (SMILES): O=S1(=O)CCN(c2nc(NC3CC3)nc(C3CC3)n2)C1 [Formula (0.0.56)]
- relaxation in a guinea-pig trachea model [8]: potent relaxant agents

Structure (SMILES): COc1ccc(C(=O)Nc2c(Cl)cncc2Cl)cc1OC1CCCC1 [RP-73,401, piclamilast]
- inhibition of airway hyper-responsiveness (AHR) [1]: active
- emesis, nausea, vomiting [5]: elicit emesis
- inhibition of IL-5 induced pleural eosinophila [2]: active
- inhibition of antigen-induced lung, BAL or airway eosinophilia [2]: active

Structure (SMILES): CCCC1C(=O)C2=C(C(CC)=NC2C)c2nc(OC)ccc21 [Example D-22888]
- rhinorrhea in the antigen-challenged pig [9]: inhibit rhinorrhea

Structure (SMILES): O=c1c2c(ncn2Cc2cccnc2)c2cccnc2n1-c1ccccc1 [KF19514]
- inhibition of airway hyper-responsiveness (AHR) [1]: activity
- inhibition of antigen-induced lung, BAL or airway eosinophilia [2]: activity
- inhibition of antigen-induced bronchoconstriction [3]: activity

Structure (SMILES): Cc1[nH]c(=O)c(C#N)cc1-c1ccncc1 [milrinone]
- effect on relaxant activities of isoproterenol and forskolin [10]: same effect

Structure (SMILES): Clc1nc2c(N3CCCC3)nc(N3CCNCC3)nc2nc1NCc1ccccc1 [Formula (0.0.55)]
- inhibition of growth of tumor cells [11]: inhibit the growth of tumor cells

Structure (SMILES): CCCCn1c(=O)c2c(ncn2CC(C)=O)n(CCCC)c1=O [denbufylline]
- mineralized nodules in bone marrow culture [12]: increase in the number of mineralized nodules
- inhibition of proliferation of HPBM [13]: concentration-related inhibition
- potency relative to pentoxifylline in inhibiting lipopolysaccharide-induced mesenteric blood flow fall [14]: 100 fold

Structure (SMILES): O=c1c2cccnc2n(-c2cccc([N+](=O)[O-])c2)c(=O)n1Cc1ccncc1 [RS-23,544]
- emesis, nausea, vomiting [5]: elicit emesis

Structure (SMILES): O=C(O)c1cccc(-c2ccc(CNC(=O)c3cccnc3Oc3ccc4c(c3)OCO4)c(F)c2)c1 [Example 3]
- melting point: 190 to 192 °C

Structure (SMILES): COc1ccc(C2CNC(=O)C2)cc1OC1CCCC1 (stereo not drawn) [rolipram]
- inhibition of proliferation of HPBM [13]: concentration-related inhibition
- clinical signs and pathological changes of chronic relapsing EAE [15]: ameliorates clinical signs and pathological changes
- clinical signs of EAE [16]: suppress the appearance of clinical signs
- effect on relaxant activities of isoproterenol and forskolin [10]: potentiates the relaxant activities of isoproterenol and forskolin
- development of disease [17]: progression of severity was halted

Structure (SMILES): Cc1cc2c3c(c1)C(c1ccccc1)=N[C@@H](NC(=O)c1ccncc1)C(=O)N3CC2 [CI-1018]
- oral potency ED50 [18]: 5 mg/kg

Structure (SMILES): O=C(O)c1cccc(-c2ccc(CNC(=O)c3cccnc3Oc3ccc(F)cc3)cc2)c1 [Example 1, 4′-[[[2-[4-Fluorophenoxyl]-pyridine-3-carbonyl]-amino]-methyl]-biphenyl-3-carboxylic acid]
- melting point: 184 to 186 °C

Structure (SMILES): CC1CC1c1nc(NC2CC2)nc(N2CCOCC2)n1 (stereo not drawn) [Formula (0.0.57)]
- relaxation in a guinea-pig trachea model [8]: potent relaxant agents

Structure (SMILES): COc1ccc([C@H](Cc2ccncc2)c2ccccc2)cc1OC1CCCC1 [CDP840]
- late reactions / late-phase response to inhaled allergen [19]: suppression; also recorded: significant inhibition
- emesis, nausea, vomiting [5]: without any adverse events of nausea or headache
- potency at the Sc compared with SB-207,499 [20]: significantly higher potency

Structure (SMILES): N#Cc1cccc(Oc2ncccc2C(=O)NCc2ccc(-c3cccc(C(=O)O)c3)cc2F)c1 [Example 4, 4′-[[[2-[3-Cyano-phenoxy]-pyridine-3-carbonyl]-amino]-methyl]-biphenyl-3′-fluoro-biphenyl-3-carboxylic acid]
- melting point: 200 to 202 °C

Structure (SMILES): COc1ccc([C@]2(C#N)CC[C@@H](C(=O)O)CC2)cc1OC1CCCC1 [SB-207,499]
- trough FEV1 versus placebo [21]: significant increases

Structure (SMILES): COc1ccc(C(=O)Nc2c(Cl)cncc2Cl)cc1OC1CCCC1 [RP73401]
- disease in SCW-induced arthritis (joint destruction, synovitis, fibrosis) [22]: significant amelioration of disease
- clinical improvement with reduction in C-reactive protein and IL-6 serum levels [23]: positive trend towards clinical improvement
